Key:
Type in all cases: cell-based
EGFR (HCC827 cells) = biological target: T1, EGFR (HCC827 cells) (Homo sapiens, UniProt P00533, DEL746-750); test: EGFR degradation HTRF assay, HCC827 cells; settings: HCC827, 16h treatment; for Dmax: maximum percentage of degradation
T1 construct: endogenous in cells; host or cells: HCC827
Method in brief: (§1)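 BaF3 (WT, Del19/T790M/C797S) and HCC827 cells exposed 16 h at 37 °C, 5% CO2 to compounds in 0.2% DMSO medium, 8 doses from 10 uM top, 5-fold steps. Lysates read by HTRF (665/620 nm); degradation % vs DMSO control, DC50 from four-parameter fit, Dmax as maximal degradation.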

[1] = biological target: T2, EGFR L858R/T790M (H1975-clone #36, homozygous) (Homo sapiens, UniProt P00533, L858R/T790M); test: EGFR degradation HTRF assay, H1975-clone #36 cells; settings: H1975 #36, 16h treatment; for Dmax: NCI-H1975, maximum percentage of degradation
T2 construct: designed to specifically target WT EGFR but preserve the L858R/T790M copy; host or cells: H1975-clone #36
Method in brief: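 H1975 clone #36, made homozygous for L858R/T790M EGFR by knockout of the WT allele, treated 16 h at 37 °C with compound in 0.2% DMSO medium. Eight doses from 10 uM, 5-fold dilutions. EGFR measured by HTRF in lysates. DC50 and Dmax fitted against DMSO controls.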

[2] = biological target: T3, EGFR L858R/T790M/C797S (BaF3-LTC cells) (Homo sapiens, UniProt P00533, C797S/L858R/T790M); test: EGFR degradation HTRF assay, BaF3-LTC cells; settings: BaF3-LTC, 16h treatment; for Dmax: maximum percentage of degradation, read-out: LTC Dmax (%); for DC50: read-out: LTC DC50
T3 construct: expressed in transfected cells; host or cells: BaF3
Method in brief: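 Cells treated 16 h at 37 °C, 5% CO2 in medium with 0.2% DMSO; top final concentration 10 uM, 5-fold dilution, 8 doses. Lysates read by HTRF (665/620 nm); degradation % versus DMSO high control, DC50 from four-parameter fit, Dmax as maximal degradation.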

[3] = tested on: EGFR Del19/T790M/C797S (BaF3-DTC cells); test: EGFR degradation HTRF assay, BaF3-DTC cells; settings: 16h treatment; for DTC Dmax (%): maximum percentage of degradation; for DC50: read-out: DTC DC50
Method in brief: as §1

T1 sequence (P00533 with tags, fused parts or gaps DEL746-750): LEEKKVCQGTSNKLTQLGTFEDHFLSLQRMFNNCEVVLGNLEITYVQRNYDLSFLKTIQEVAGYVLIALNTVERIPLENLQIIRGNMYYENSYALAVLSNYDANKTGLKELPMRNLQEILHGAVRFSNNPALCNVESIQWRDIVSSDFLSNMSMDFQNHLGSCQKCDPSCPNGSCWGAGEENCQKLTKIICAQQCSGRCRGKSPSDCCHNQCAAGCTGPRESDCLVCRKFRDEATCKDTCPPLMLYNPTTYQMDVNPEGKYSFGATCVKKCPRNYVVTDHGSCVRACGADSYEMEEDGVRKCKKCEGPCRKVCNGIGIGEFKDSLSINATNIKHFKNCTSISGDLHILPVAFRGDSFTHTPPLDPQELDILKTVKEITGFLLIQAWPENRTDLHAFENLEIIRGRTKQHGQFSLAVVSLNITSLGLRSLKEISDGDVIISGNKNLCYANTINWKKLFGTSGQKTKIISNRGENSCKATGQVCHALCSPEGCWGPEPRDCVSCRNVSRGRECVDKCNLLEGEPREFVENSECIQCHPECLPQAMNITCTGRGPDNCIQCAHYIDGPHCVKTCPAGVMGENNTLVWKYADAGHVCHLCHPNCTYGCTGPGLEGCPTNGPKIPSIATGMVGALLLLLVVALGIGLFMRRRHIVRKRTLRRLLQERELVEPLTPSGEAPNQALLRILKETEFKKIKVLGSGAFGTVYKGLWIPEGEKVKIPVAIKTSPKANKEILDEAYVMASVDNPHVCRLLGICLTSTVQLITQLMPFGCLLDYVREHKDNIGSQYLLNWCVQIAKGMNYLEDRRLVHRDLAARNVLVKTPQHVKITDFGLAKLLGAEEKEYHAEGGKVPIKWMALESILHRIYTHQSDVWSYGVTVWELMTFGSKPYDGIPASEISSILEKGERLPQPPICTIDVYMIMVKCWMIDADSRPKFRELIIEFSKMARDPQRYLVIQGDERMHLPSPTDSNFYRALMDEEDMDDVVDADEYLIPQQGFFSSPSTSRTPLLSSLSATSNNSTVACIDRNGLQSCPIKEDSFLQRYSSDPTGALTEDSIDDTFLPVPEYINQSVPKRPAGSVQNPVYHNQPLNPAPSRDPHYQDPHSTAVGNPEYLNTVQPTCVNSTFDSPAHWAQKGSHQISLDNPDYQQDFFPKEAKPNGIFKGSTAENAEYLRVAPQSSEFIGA
T2 sequence (P00533 25-1210 T790M/L858R): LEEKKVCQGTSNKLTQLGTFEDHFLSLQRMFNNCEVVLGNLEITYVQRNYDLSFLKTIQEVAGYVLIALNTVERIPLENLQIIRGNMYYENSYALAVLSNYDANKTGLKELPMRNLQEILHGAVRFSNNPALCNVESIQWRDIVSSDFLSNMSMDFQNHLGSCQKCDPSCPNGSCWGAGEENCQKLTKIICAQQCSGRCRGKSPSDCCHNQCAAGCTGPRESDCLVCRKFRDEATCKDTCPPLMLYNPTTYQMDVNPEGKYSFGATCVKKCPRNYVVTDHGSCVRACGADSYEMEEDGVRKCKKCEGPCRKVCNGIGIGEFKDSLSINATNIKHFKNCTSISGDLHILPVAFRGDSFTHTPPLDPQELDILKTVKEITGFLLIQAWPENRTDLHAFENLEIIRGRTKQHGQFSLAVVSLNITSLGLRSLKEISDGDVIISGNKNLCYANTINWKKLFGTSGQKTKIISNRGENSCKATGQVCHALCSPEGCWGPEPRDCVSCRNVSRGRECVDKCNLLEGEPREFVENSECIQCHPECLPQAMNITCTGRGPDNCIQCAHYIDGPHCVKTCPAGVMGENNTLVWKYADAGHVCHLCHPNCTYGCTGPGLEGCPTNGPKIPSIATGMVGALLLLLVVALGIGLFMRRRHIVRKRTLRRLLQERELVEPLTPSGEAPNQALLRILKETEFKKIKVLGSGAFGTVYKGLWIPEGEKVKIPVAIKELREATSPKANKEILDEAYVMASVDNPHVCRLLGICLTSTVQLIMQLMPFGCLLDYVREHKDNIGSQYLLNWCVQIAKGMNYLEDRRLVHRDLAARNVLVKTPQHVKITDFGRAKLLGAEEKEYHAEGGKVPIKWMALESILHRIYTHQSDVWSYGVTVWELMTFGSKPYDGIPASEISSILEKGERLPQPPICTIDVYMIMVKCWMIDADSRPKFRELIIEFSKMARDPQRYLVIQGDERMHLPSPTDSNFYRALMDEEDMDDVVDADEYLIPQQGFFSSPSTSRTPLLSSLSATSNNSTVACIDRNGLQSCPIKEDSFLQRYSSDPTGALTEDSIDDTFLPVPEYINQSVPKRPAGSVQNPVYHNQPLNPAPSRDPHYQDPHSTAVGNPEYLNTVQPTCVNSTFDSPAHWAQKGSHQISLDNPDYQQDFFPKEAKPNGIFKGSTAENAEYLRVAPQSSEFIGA
T3 sequence (P00533 25-1210 T790M/C797S/L858R): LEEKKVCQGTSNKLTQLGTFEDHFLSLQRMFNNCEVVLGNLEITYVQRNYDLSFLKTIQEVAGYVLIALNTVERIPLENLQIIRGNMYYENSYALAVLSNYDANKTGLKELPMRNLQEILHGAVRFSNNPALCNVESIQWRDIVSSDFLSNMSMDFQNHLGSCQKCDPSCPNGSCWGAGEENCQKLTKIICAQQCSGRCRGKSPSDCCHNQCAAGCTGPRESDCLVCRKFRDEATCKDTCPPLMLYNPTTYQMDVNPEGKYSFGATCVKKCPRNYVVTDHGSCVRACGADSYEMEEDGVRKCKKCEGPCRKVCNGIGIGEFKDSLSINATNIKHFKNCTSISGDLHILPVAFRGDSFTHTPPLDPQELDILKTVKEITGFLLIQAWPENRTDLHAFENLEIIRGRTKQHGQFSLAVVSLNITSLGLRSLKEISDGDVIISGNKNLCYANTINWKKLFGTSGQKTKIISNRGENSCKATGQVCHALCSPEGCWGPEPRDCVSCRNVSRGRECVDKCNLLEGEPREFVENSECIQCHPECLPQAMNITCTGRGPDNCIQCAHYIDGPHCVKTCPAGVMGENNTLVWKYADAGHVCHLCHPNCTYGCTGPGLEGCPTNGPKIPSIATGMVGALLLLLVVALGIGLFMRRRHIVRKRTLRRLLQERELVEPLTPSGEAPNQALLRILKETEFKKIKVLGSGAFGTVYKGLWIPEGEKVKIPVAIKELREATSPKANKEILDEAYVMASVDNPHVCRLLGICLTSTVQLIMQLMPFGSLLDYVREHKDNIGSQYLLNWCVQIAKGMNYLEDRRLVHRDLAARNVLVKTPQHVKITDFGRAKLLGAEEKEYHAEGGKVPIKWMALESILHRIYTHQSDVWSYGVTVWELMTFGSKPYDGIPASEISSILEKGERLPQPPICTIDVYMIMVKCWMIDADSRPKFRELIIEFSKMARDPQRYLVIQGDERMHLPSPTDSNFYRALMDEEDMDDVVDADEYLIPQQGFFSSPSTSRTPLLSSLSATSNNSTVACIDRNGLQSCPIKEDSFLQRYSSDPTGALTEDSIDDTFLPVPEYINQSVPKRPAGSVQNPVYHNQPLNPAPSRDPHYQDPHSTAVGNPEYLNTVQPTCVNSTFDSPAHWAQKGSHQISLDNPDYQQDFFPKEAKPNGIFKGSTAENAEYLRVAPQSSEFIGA

| Compound | DC50 (EGFR (HCC827 cells)) [nM] | Dmax (EGFR (HCC827 cells)) [%] | DC50 [1] [nM] | Dmax [1] [%] | Dmax [2] [%] | DC50 [2] [nM] | DTC Dmax (%) [3] [%] | DC50 [3] [nM] |
| --- | --- | --- | --- | --- | --- | --- | --- | --- |
| CCc1cc(Nc2ncc(Br)c(Nc3ccc4nccnc4c3P(C)(C)=O)n2)c(OC)cc1N1CCC(N2CCN(CC3CN(c4ccc5c(c4)CN(C4CCC(=O)NC4=O)C5=O)C3)CC2)CC1 (stereo not drawn) [Example 160, 3-(5-(3-((4-(1-(4-((5-bromo-4-((5-(dimethylphosphoryl)quinoxalin-6-yl)amino)pyrimidin-2-yl)amino)-2-ethyl-5-methoxyphenyl)piperidin-4-yl)piperazin-1-yl)methyl)azetidin-1-yl)-1-oxoisoindolin-2-yl)piperidine-2,6-dione] | 2.69 | 81.7 | 3.07 | 76.8 | 92.9 | 18.1 | 94.14 | 6.95 |
| CCc1cc(Nc2ncc(Br)c(Nc3ccc4nccnc4c3P(C)(C)=O)n2)c(OC)cc1N1CCC(N2CCN(CC3CCN(c4ccc(C5CCC(=O)NC5=O)cc4)C3)CC2)CC1 (stereo not drawn) [Example 168, 3-(4-(3-((4-(1-(4-((5-bromo-4-((5-(dimethylphosphoryl)quinoxalin-6-yl)amino)pyrimidin-2-yl)amino)-2-ethyl-5-methoxyphenyl)piperidin-4-yl)piperazin-1-yl)methyl)pyrrolidin-1-yl)phenyl)piperidine-2,6-dione] | 4.85 | 81.2 | 1.61 | 62.4 | 86.4 | 47 | 88.5 | 22.4 |
| CCc1cc(Nc2ncc(Br)c(Nc3ccc4nccnc4c3P(C)(C)=O)n2)c(OC)cc1N1CCC(N2CCN(C(=O)C3CCN(c4ccc5c(c4)C(C)(C)C(=O)N5C4CCC(=O)NC4=O)CC3)CC2)CC1 (stereo not drawn) [Example 219, 3-(5-(4-(4-(1-(4-((5-bromo-4-((5-(dimethylphosphoryl)quinoxalin-6-yl)amino)pyrimidin-2-yl)amino)-2-ethyl-5-methoxyphenyl)piperidin-4-yl)piperazine-1-carbonyl)piperidin-1-yl)-3,3-dimethyl-2-oxoindolin-1-yl)piperidine-2,6-dione] | 3.21 | 65.9 | 0.65 | 69.6 | 87.5 | 4.8 | 93 | 1.94 |
| CCc1cc(Nc2ncc(Br)c(Nc3ccc4nccnc4c3P(C)(C)=O)n2)c(OC)cc1N1CCC(N2CCN(C[C@H]3CCN(c4ccc(C5CCC(=O)NC5=O)cc4)C3)CC2)CC1 (stereo partly drawn) [Example 220, 3-(4-((R)-3-((4-(1-(4-((5-bromo-4-((5-(dimethylphosphoryl)quinoxalin-6-yl)amino)pyrimidin-2-yl)amino)-2-ethyl-5-methoxyphenyl)piperidin-4-yl)piperazin-1-yl)methyl)pyrrolidin-1-yl)phenyl)piperidine-2,6-dione] | 5.1 | 77.7 | 8.8 | 85.6 | 88.8 | 43.2 | 86 | 18.2 |
| CCc1cc(Nc2ncc(Br)c(Nc3ccc4nccnc4c3P(C)(C)=O)n2)c(OC)cc1N1CCC(N2CCN(C[C@@H]3CCN(c4ccc(C5CCC(=O)NC5=O)cc4)C3)CC2)CC1 (stereo partly drawn) [Example 221, 3-(4-((S)-3-((4-(1-(4-((5-bromo-4-((5-(dimethylphosphoryl)quinoxalin-6-yl)amino)pyrimidin-2-yl)amino)-2-ethyl-5-methoxyphenyl)piperidin-4-yl)piperazin-1-yl)methyl)pyrrolidin-1-yl)phenyl)piperidine-2,6-dione] | 5.15 | 75.3 | 6.46 | 61 | 84.2 | 36.1 | 87.37 | 15.7 |
| CCc1cc(Nc2ncc(Br)c(Nc3ccc4nccnc4c3P(C)(C)=O)n2)c(OC)cc1N1CCC(N2CCN(C(=O)CC3CN(c4ccc5c(c4)C(=O)N(C4CCC(=O)NC4=O)C5=O)C3)CC2)CC1 (stereo not drawn) [Example 222, 5-(3-(2-(4-(1-(4-((5-bromo-4-((5-(dimethylphosphoryl)quinoxalin-6-yl)amino)pyrimidin-2-yl)amino)-2-ethyl-5-methoxyphenyl)piperidin-4-yl)piperazin-1-yl)-2-oxoethyl)azetidin-1-yl)-2-(2,6-dioxopiperidin-3-yl)isoindoline-1,3-dione] | 3.71 | 78.5 | 7.03 | 69 | 75.6 | 21.3 | 83.72 | 3.41 |
| CCc1cc(Nc2ncc(Br)c(Nc3ccc4nccnc4c3P(C)(C)=O)n2)c(OC)cc1N1CCC(N2CCN(C(=O)[C@H]3C[C@H](N(C)c4ccc(C5CCC(=O)NC5=O)cc4)C3)CC2)CC1 (stereo partly drawn) [Example 247, 3-(4-(((1r,3r)-3-(4-(1-(4-((5-bromo-4-((5-(dimethylphosphoryl)quinoxalin-6-yl)amino)pyrimidin-2-yl)amino)-2-ethyl-5-methoxyphenyl)piperidin-4-yl)piperazine-1-carbonyl)cyclobutyl)(methyl)amino)phenyl)piperidine-2,6-dione] | 4.59 | 67 | 5.1 | 72.8 | 83.1 | 18.6 | 86.93 | 6.37 |
| CCc1cc(Nc2ncc(Br)c(Nc3ccc4nccnc4c3P(C)(C)=O)n2)c(OC)cc1N1CCC(N2CCN(C(=O)C3CCN(c4cc(F)c(C5CCC(=O)NC5=O)c(F)c4)CC3)CC2)CC1 (stereo not drawn) [Example 254, 3-(4-(4-(4-(1-(4-((5-bromo-4-((5-(dimethylphosphoryl)quinoxalin-6-yl)amino)pyrimidin-2-yl)amino)-2-ethyl-5-methoxyphenyl)piperidin-4-yl)piperazine-1-carbonyl)piperidin-1-yl)-2,6-difluorophenyl)piperidine-2,6-dione] | 3.14 | 77.7 | 3.61 | 75.5 | 84.7 | 15.9 | 92.55 | 4.98 |
| CCc1cc(Nc2ncc(Br)c(Nc3ccc4nccnc4c3P(C)(C)=O)n2)c(OC)cc1N1CCC(N2CCN(C(=O)[C@@H]3CCN(c4cc(F)c(C5CCC(=O)NC5=O)c(F)c4)C3)CC2)CC1 (stereo partly drawn) [Example 255, 3-(4-((R)-3-(4-(1-(4-((5-bromo-4-((5-(dimethylphosphoryl)quinoxalin-6-yl)amino)pyrimidin-2-yl)amino)-2-ethyl-5-methoxyphenyl)piperidin-4-yl)piperazine-1-carbonyl)pyrrolidin-1-yl)-2,6-difluorophenyl)piperidine-2,6-dione] | 2.87 | 78.5 | 3.27 | 90.2 | 83.4 | 17.3 | 96.33 | 5.62 |
| CCc1cc(Nc2ncc(Br)c(Nc3ccc4c(=O)n(C)ncc4c3P(C)(C)=O)n2)c(OC)cc1N1CCC(N2CCN(CCC3CCN(c4cc(F)c(C5CCC(=O)NC5=O)c(F)c4)CC3)CC2)CC1 (stereo not drawn) [Example 270, 3-(4-(4-(2-(4-(1-(4-((5-bromo-4-((5-(dimethylphosphoryl)-2-methyl-1-oxo-1,2-dihydrophthalazin-6-yl)amino)pyrimidin-2-yl)amino)-2-ethyl-5-methoxyphenyl)piperidin-4-yl)piperazin-1-yl)ethyl)piperidin-1-yl)-2,6-difluorophenyl)piperidine-2,6-dione] | 5.43 | 89 | 17.1 | 84.6 | 84.2 | 24 | 91.36 | 6.97 |
| CCc1cc(Nc2ncc(Br)c(Nc3ccc4nccnc4c3P(C)(C)=O)n2)c(OC)cc1N1CCC(N2CCN(C3CC(c4ccc5c(c4)C(C)(C)C(=O)N5C4CCC(=O)NC4=O)C3)CC2)CC1 (stereo not drawn) [Example 317, 3-(5-(3-(4-(1-(4-((5-bromo-4-((5-(dimethylphosphoryl)quinoxalin-6-yl)amino)pyrimidin-2-yl)amino)-2-ethyl-5-methoxyphenyl)piperidin-4-yl)piperazin-1-yl)cyclobutyl)-3,3-dimethyl-2-oxoindolin-1-yl)piperidine-2,6-dione] | 0.779 | 51.6 | > 80 | 47 | 94.1 | 9.47 | 90.74 | 5.17 |
| CCc1cc(Nc2ncc(Br)c(Nc3ccc4nccnc4c3P(C)(C)=O)n2)c(OC)cc1N1CCC(N2CCN(CCc3cccc4c3n(C)c(=O)n4C3CCC(=O)NC3=O)CC2)CC1 (stereo not drawn) [Example 318, 3-(4-(2-(4-(1-(4-((5-bromo-4-((5-(dimethylphosphoryl)quinoxalin-6-yl)amino)pyrimidin-2-yl)amino)-2-ethyl-5-methoxyphenyl)piperidin-4-yl)piperazin-1-yl)ethyl)-3-methyl-2-oxo-2,3-dihydro-1H-benzo[d]imidazol-1-yl)piperidine-2,6-dione] | 0.601 | 85.2 | 2.14 | 88.8 | 93.3 | 4.4 | 91.99 | 3.1 |
